Assay results reported in ChEMBL document CHEMBL1133278, “1-[2-[(Heteroarylmethoxy)aryl]carbamoyl]indolines are selective and orally active 5-HT2C receptor inverse agonists” (Bioorg Med Chem Lett, 2000).

Columns and labels:
[1] = target: Serotonin receptor (2b and 2c) (Homo sapiens) (UniProt P41595+P28335); experiment: Selectivity at serotonin 5-HT 2C receptor compared to serotonin 5-HT 2B receptor; assay type: protein assay
[2] = target: T1, 5-hydroxytryptamine receptor 2C (Homo sapiens, UniProt P28335); experiment: In vitro binding affinity at human cloned 5-hydroxytryptamine 2C receptor of HEK293 cells by [3H]mesulergine displacement.; assay type: cell-based
T1 sequence (P28335 whole entry): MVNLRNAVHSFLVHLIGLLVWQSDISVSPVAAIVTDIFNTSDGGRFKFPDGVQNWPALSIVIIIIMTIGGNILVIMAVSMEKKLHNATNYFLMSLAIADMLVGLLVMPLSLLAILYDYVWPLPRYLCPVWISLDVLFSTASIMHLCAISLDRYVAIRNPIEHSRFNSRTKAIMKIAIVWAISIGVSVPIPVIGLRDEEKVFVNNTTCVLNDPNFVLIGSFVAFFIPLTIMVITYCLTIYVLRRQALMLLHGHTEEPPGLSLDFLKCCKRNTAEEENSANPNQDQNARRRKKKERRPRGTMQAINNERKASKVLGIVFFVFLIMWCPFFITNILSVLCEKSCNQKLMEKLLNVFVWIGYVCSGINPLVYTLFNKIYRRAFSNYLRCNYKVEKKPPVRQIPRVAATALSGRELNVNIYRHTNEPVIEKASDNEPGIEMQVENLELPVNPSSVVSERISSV

[3] = target: 5-hydroxytryptamine receptor 2A (Homo sapiens, UniProt P28223); experiment: In vitro binding affinity at human cloned 5-hydroxytryptamine 2A receptor of HEK293 cells by [3H]ketanserin displacement.; assay type: cell-based
[4] = target: 5-hydroxytryptamine receptor 2B (Homo sapiens, UniProt P41595); experiment: In vitro binding affinity at human cloned 5-hydroxytryptamine 2B receptor of HEK293 cells by [3H]5-HT displacement.; assay type: cell-based
[5] = target: Serotonin 2 receptors; 5-HT2a & 5-HT2c (Homo sapiens) (UniProt P28223+P28335); experiment: Selectivity at 5-HT 2C receptor compared to serotonin 5-HT 2A receptor; assay type: protein assay
Rattus norvegicus [6] = experiment: Percent reversal of mCPP induced hypolocomotion after peroral administration at 5 mg/kg in rat; assay type: functional; details: route oral
Rattus norvegicus [7] = experiment: Dose required to reverse mCPP induced hypolocomotion by 50% at 7 mg/kg, ip administration 30 min pretest in rat; assay type: functional; details: po, 0.5 h, read-out: ID50 (the source's name)

5-hydroxytryptamine receptor 2A, sequence (P28223 whole entry): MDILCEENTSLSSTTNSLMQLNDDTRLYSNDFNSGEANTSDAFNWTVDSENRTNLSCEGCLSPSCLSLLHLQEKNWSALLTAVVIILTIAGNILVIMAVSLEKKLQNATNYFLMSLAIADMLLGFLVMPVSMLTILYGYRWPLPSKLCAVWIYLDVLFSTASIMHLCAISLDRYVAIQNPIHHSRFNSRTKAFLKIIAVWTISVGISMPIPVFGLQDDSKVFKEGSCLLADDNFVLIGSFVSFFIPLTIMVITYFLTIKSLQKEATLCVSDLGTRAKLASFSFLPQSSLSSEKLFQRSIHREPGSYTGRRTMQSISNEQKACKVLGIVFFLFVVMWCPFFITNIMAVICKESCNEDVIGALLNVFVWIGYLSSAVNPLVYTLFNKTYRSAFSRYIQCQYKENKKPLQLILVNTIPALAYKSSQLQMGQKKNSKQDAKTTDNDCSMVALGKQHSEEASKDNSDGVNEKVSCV
Serotonin 2 receptors; 5-HT2a & 5-HT2c (Homo sapiens), sequence (P28223 whole entry, looked up, one chain of several): as the sequence (P28223 whole entry) above
5-hydroxytryptamine receptor 2B, sequence (P41595 whole entry): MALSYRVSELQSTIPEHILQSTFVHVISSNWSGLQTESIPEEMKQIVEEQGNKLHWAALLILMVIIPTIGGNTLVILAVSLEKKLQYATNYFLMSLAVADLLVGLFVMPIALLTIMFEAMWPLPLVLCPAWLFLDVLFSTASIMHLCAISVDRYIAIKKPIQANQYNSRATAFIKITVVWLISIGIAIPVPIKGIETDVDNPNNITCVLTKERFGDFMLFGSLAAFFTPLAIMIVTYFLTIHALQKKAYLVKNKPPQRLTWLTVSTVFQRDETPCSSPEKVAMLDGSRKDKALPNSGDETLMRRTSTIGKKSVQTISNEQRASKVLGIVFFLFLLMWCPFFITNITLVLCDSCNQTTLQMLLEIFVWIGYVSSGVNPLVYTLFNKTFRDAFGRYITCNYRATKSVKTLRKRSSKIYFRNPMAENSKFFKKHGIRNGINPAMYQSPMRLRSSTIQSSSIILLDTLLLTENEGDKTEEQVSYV

| Selectivity [1] | Ki [2] | Ki [3] | Ki [4] | Selectivity [5] | SMILES | Reversal (Rattus norvegicus [6]) | ED50 (Rattus norvegicus [7]) |
| --- | --- | --- | --- | --- | --- | --- | --- |
| 15 | 5.01 nM | 251 nM | 79.4 nM | 50 | Cc1cc2c(cc1C(F)(F)F)N(C(=O)Nc1ccc(OCc3ccccn3)nn1)CC2 |  |  |
| 2.5 | 5.01 nM | 251 nM | 12.6 nM | 50 | Cc1cc2c(cc1Cl)N(C(=O)Nc1ccc(OCc3nccn3C)nc1)CC2 |  |  |
| 10 | 2.51 nM | 398 nM | 25.1 nM | 160 | Cc1cc2c(cc1C(F)(F)F)N(C(=O)Nc1ccc(OCc3ccccn3)cc1)CC2 | 84% |  |
| 2 | 3.98 nM | 100 nM | 6.31 nM | 25 | Cc1cc2c(cc1C(F)(F)F)N(C(=O)Nc1ccc(OCc3cncn3C)nc1)CC2 |  |  |
| 30 | 31.6 nM | > 5010 nM | 1000 nM | > 160 | O=C(Nc1ccc(OCc2ccccn2)nc1)N1CCc2cc(Cl)ccc21 |  |  |
| 60 | 0.501 nM | 631 nM | 31.6 nM | 1300 | Cc1cc2c(cc1C(F)(F)F)N(C(=O)Nc1ccc(OCc3ccccn3)nc1)CC2 |  | 1 mg/kg |
| 6 | 1.26 nM | 79.4 nM | 7.94 nM | 60 | Cc1cc2c(cc1Cl)N(C(=O)Nc1ccc(OCc3ccncc3)nc1)CC2 |  |  |
| 2 | 10 nM | 2000 nM | 20 nM | 200 | Cc1cc2c(cc1C(F)(F)F)N(C(=O)Nc1ccc(OCCc3ccccn3)nc1)CC2 |  |  |
| 30 | 15.8 nM | 2510 nM | 501 nM | 160 | O=C(Nc1ccc(OCc2ccccn2)nc1)N1CCc2cc(Br)ccc21 |  | 2.4 mg/kg |
| 20 | 0.398 nM | 39.8 nM | 7.94 nM | 100 | Cc1cc2c(cc1C(F)(F)F)N(C(=O)Nc1cnc(OCc3ccccn3)c(C)c1)CC2 |  | 0.3 mg/kg |
| 40 | 2.51 nM | > 794 nM | 100 nM | > 320 | Cc1cc2c(cc1Cl)N(C(=O)Nc1ccc(OCc3ccccn3)nc1)CC2 | 41% |  |
| 60 | 6.31 nM | 5010 nM | 398 nM | 800 | O=C(Nc1ccc(OCc2ccccn2)nc1)N1CCc2cc(C(F)(F)F)ccc21 |  | 1.6 mg/kg |
| 4 | 3.98 nM | 158 nM | 15.8 nM | 40 | Cc1cc2c(cc1C(F)(F)F)N(C(=O)Nc1ccc(OCc3ncccc3C)nc1)CC2 |  |  |
| 20 | 5.01 nM | > 794 nM | 100 nM | > 160 | Cc1cc2c(cc1Cl)N(C(=O)Nc1ccc(OCc3nccs3)nc1)CC2 | 2% |  |
| 20 | 0.501 nM | 316 nM | 10 nM | 630 | Cc1cc2c(cc1C(F)(F)F)N(C(=O)Nc1ccc(OCc3cnccn3)nc1)CC2 | 58% |  |
| 13 | 79.4 nM | 5010 nM | 1000 nM | 60 | O=C(Nc1ccc(OCc2ccccn2)nc1)N1CCc2c(Cl)cccc21 |  |  |
| 6 | 3.16 nM | 158 nM | 20 nM | 50 | Cc1cc2c(cc1C(F)(F)F)N(C(=O)Nc1ccc(CCc3ccccn3)nc1)CC2 |  |  |
| 40 | 5.01 nM | 100 nM | 200 nM | 20 | Cc1cc2c(cc1C(F)(F)F)N(C(=O)Nc1ccc(COc3ccccn3)nc1)CC2 |  |  |
| 4 | 6.31 nM | 1000 nM | 25.1 nM | 160 | Cc1cccc(COc2ccc(NC(=O)N3CCc4cc(C)c(C(F)(F)F)cc43)cn2)n1 |  |  |
| 1 | 25.1 nM | > 794 nM | 25.1 nM | > 30 | Cc1cc2c(cc1Cl)N(C(=O)Nc1ccc(OCc3cccnc3)nc1)CC2 |  |  |
| 30 | 7.94 nM | 251 nM | 251 nM | 30 | O=C(Nc1ccc(OCc2ccccn2)nc1)N1CCc2ccc(C(F)(F)F)cc21 |  |  |
